Read-outs that look alike come from different tables or passages of the source.
What was measured:
[1] = test system: patients with severe major depressive disorder (MDD); assay: Open-label study in severe MDD, Part A, HAM-D efficacy; assay type: in vivo, human
Procedure: The study is an open-label, study comprised of two dosing periods, Part A and Part B, during which patients were treated with an oral suspension of Compound 1. Part A was an open-label assessment of two dose levels of Compound 1 (45 mg qHS Cohort 1 and 80 mg qHS Cohort, i.e., once daily administration at bedtime) administered for 7 days inpatient followed by 7 days outpatient. PRAX-114 was administered at 4 PM on Day 1 in order to collect post-dosing PK samples that could not be collected with qHS dosing.
(§1) In Part A, participants were administered daily doses of Compound 1 (45 mg Cohort and 80 mg Cohort) at 4 PM on Day 1 and qHS on all other study days for 7 days inpatient followed by 7 days outpatient (with subsequent Cohorts receiving up to 120 mg qHS). Participants checked into the clinic on Day 1. During this period the following assessments were performed: adverse event assessments, vital signs, physical examinations, blood and urine samples for safety assessments, ECGs, C-SSRS assessments, blood samples for PK, and efficacy assessments (HAM-D, MADRS, HAM-A, CGI [CGI-S and CGI-I], PSQI, and SDQ). Baseline assessments occurred on Day 1 prior to administration of study drug. On Day 8, prior to discharge, participants were supplied with sufficient Compound 1 to complete 7 days of dosing.
Patients were administered daily doses of Compound 1 for 7 days inpatient followed by 7 days outpatient.
In the 45 mg Cohort, patients were administered once daily dose of 45 mg of Compound 1 at bedtime for 7 days inpatient followed by once daily dose of 45 mg of Compound 1 at bedtime for 7 days outpatient.
In the 80 mg Cohort, patients were administered once daily dose of 80 mg of Compound 1 at bedtime for 7 days inpatient followed by once daily dose of 80 mg of Compound 1 at bedtime for 7 days outpatient.
In Part A, HAM-D, MADRS, HAM-A, CGI-S, and CGI-I values were collected in the morning of Days 1, 2, 3, 4, 5, 6, 7, 8, 15, 21 and 28. PSQI and SDQ values will be collected on Days 1, 8, 15, 21 and 28. Part B: In Part B, HAM-D, MADRS, HAM-A, CGI-S, CGI-I, PSQI and SDQ values will be collected on the days described for Part A.
HAM-D Response was defined as a reduction from baseline of ≥50% in total HAM-D score. HAM-D remission was defined as a total HAM-D score of ≤7.
For both parts of the clinical trial, the HAM-D total score and change from baseline values will be summarized by treatment group and time point. In addition, the change from baseline in HAM-D total score will also be analyzed using paired t-tests or similar methods. The null hypothesis of this test is that the mean difference in HAM-D total score between paired observations (i.e., pre- and post-treatment) is zero. Similar analysis methods will be used for all secondary and exploratory efficacy variables.

[2] = Safety/tolerability in MDD patients, Part A; assay type: in vivo, human; settings: 80 mg Cohort, compared to the 45 mg Cohort
Procedure: as §1
Adverse events (AEs) will be monitored throughout the duration of the study.

[3] = human, in vivo
Procedure: (§2) Healthy subjects aged 18 to 55 years were treated with an oral suspension of Compound 1 to study the safety, tolerability, pharmacokinetics and pharmacodynamics of Compound 1 in healthy subjects.
(§3) The study was a randomized, double-blind, placebo-controlled multiple escalating dose study comprised of 3 cohorts that each received an oral suspension. Each cohort consisted of two groups: one group treated with Compound 1 and another treated with placebo. In each cohort, the ratio of Compound 1-treated subjects to placebo-treated subjects was 3:1.
(§4) The Compound 1-treated subjects of Cohort 1 were treated with 15.0 mg of Compound 1 once per day (QD). The Compound 1-treated subjects of Cohort 2 were treated with 30.0 mg of Compound 1 QD. The Compound 1-treated subjects of Cohort 3 were treated with 60.0 mg of Compound 1 QD.
(§5) Patients in each cohort were treated with Compound 1 for 14 consecutive days, unless dosing was halted by the Safety Review Committee (SRC). The dosing of subjects in each of the cohorts was staggered with the decision to dose escalate based on SRC review of a minimum of 14 days of observation of safety and tolerability data and review of the available plasma PK data from the preceding cohort(s). Thus, dose escalation was predicated on tolerability of the prior cohorts.
(§6) Compound 1 was administered under fasted conditions (no food or drink, except water, for at least 10 hours prior to dosing). Immediately after administration of Compound 1, the subject was be administered 240 mL water. No additional fluid intake was allowed until 1 hour after Compound 1 administration.
(§7) Cohort 1 subjects received a single 15.0 mg dose of a Compound 1 suspension on the morning of Days 1-14. Cohort 2 subjects received a single 30.0 mg dose of a Compound 1 suspension on the morning of Days 1-14. Cohort 3 subjects received a single 60.0 mg dose of a Compound 1 suspension on the morning of Days 1-14. For all cohorts, the last treatment was administered on the morning of Day 14.
(§8) Data were obtained from the blood plasma samples collected from each cohort according to the schedule provided.
(§9) Plasma samples were analyzed to determine Compound 1 concentrations using a validated assay method. Pharmacokinetic variables (including but not limited to Cmax, Tmax and AUC(0-last)), were calculated using non-compartmental analysis. PK parameters for Compound 1 were derived from the plasma concentration data using non-compartmental analysis with Phoenix™ WinNonlin® v 8.0 (Pharsight Corporation, USA).
(§10) For each cohort, blood samples were collected on Days 1, 2, 3, 4, 5, 6 and 14 at the following time points: Day 1 at pre-dose (0 hour), 0.25, 0.5, 0.75, 1, 1.5, 2, 2.5, 3, 4, 6, 8, 12, 16 h post-dose; Day 2 at pre-dose (24 h), Day 3 at pre-dose (48 h), Day 4 at pre-dose (72 h), Day 5 at pre-dose (96 h), Day 6 at pre-dose (120 h); Day 14 at pre-dose 0.25, 0.5, 0.75, 1, 1.5, 2, 2.5, 3, 4, 6, 8, 12, 16, 24, 36, 48, and 72 hours. Trough level blood samples were collected on Days 2, 3, 4, 5, 6 and 14, prior to the morning dose administrations.
(§11) Descriptive statistics were calculated for plasma and urine PK parameter and concentration data, and summarized by study day and time point. Arithmetic means, coefficient of variation (CV), standard deviation, median, minimum, and maximum values, and number of observations were calculated for all PK parameters and trough concentration data. Except for Tmax, the geometric mean, geometric standard deviation, and geometric CV were provided for all PK parameter and concentration data.

[4] = in vivo, po
Procedure: (§12) The Day 1 dose was administered after a minimum of 10 hour fasting. No additional fluid intake was allowed until 1 hour after drug administration. A standard meal was given at least 4 hours post-dose. The Day 5 dose was administered following a high-fat, high calorie meal. Participants remained at the clinical site for a total of 8 days to complete PK sampling after the second dose.
(§13) Pharmacokinetic variables (including but not limited to Cmax, Tmax and AUC(0-last)), were calculated using non-compartmental analysis.
(§14) Urine (Cohort 4): No urine analysis was conducted in Cohort 4.

clinical = settings: human, in vivo; for AUC(0-inf): AUCinf
Procedure: as §2, §3, §4, §5, §6, §7, §8, §9, §10, §11

[5] = Food Effect Cohort (Cohort 4), single 30 mg dose fasted vs high-fat, high calorie meal, plasma PK; settings: human, po, t 1/2, Cohort 4, single 30 mg oral, n = 10, Mean (SD)
Procedure: as §12, §13, §14

[6] = Randomized, double-blind, placebo-controlled multiple escalating dose study, plasma PK of Compound 1 oral suspension (Cohorts 1-3); settings: for Vd/F: Vz/F
Procedure: as §2, §3, §4, §5, §6, §7, §8, §9, §10, §11

[7] = Cohort 1, 15.0 mg QD oral, Day 14, Mean
[8] = Cohort 2, 30.0 mg QD oral, Day 14, Mean

SMILES: COC[C@@]1(O)CC[C@@]2(C)[C@@H](CC[C@@H]3[C@@H]2CC[C@]2(C)[C@@H](C(=O)Cn4ccnc4)CC[C@@H]32)C1 [Compound 1, 3α-Hydroxy-3β-methoxymethyl-21-(1′-imidazolyl)-5α-pregnan-20-one]
- least squares Mean Change from Baseline in HAM-D score ([1]; 45 mg Cohort, Day 7): −17.8
- least squares Mean Change from Baseline in HAM-D score ([1]; 45 mg Cohort, Day 15): −13.2
- patients who met the HAM-D Response or Remission criterion ([1]; 45 mg Cohort, once daily at bedtime, Day 7): 11 of the 13
- patients who met the HAM-D Response or Remission criteria ([1]; 45 mg Cohort, once daily at bedtime, Day 15): 8 of the 13
- least squares Mean Change from Baseline in HAM-D score ([1]; 80 mg Cohort, Day 7): −20.0
- least squares Mean Change from Baseline in HAM-D score ([1]; 80 mg Cohort, Day 15): −16.0
- patients who met the HAM-D Response or Remission criteria ([1]; 80 mg Cohort, once daily at bedtime, Day 15): 6 of the 7
- Efficacy by background antidepressant ([1]; as monotherapy and in combination with another antidepressant): Efficacy was observed
- symptoms of moderate to severe MDD ([1]; daily dose of 45 mg or 80 mg): exhibited reduced symptoms of moderate to severe MDD
- tolerability / Adverse Event profile [2]: well tolerated with no change in Adverse Event profile
- dose dependence of Cavg, AUCss and AUCinf [3]: proportional increase
- dose dependence of Cmax and AUC parameters at steady state ([3]; po): approximate proportional increase
- steady state clearance ([3]; po): approximately 31 L/h
- accumulation factor of the dosing interval (ratio of AUCDay 14/AUCDay 1) ([3]; po, 15 mg): approximately 1.25
- Cmax ([3]; po, 30 mg): 156.00 ng/mL
- accumulation factor of the dosing interval (ratio of AUCDay 14/AUCDay 1) ([3]; po, 30 mg): approximately 1.25
- Tmax ([3]; po, 60 mg): 1.00 h
- accumulation factor of the dosing interval (ratio of AUCDay 14/AUCDay 1) ([3]; po, 60 mg): 0.89
- Tmax ([4]; human): 1.00 (0.75, 1.77) h
- Cmax higher under fasting conditions compared to fed conditions ([4]; human, 30 mg): 1.5-1.6 times
- t½, fasted versus fed conditions [4]: similar
- Tmax (clinical): ≤ 2 h
- AUC (clinical; po, 15 mg, AUC0-tau): 362 ng·h/mL
- AUC(0-inf) (clinical; po, 15 mg): 600 ng·h/mL
- AUC (clinical; po, 15 mg, AUCss): 492 ng·h/mL
- Cmax (clinical; po, 15 mg): 56 ng/mL
- Cmax (clinical; po, 15 mg, ss): 65 ng/mL
- Tmax (clinical; po, 15 mg): 1.03 h
- Tmax (clinical; po, 15 mg, ss): 1.07 h
- AUC (clinical; po, 30 mg, AUC0-tau): 842 ng·h/mL
- AUC(0-inf) (clinical; po, 30 mg): 1230 ng·h/mL
- AUC (clinical; po, 30 mg, AUCss): 1020 ng·h/mL
- Cmax (clinical; po, 30 mg): 133 ng/mL
- Cmax (clinical; po, 30 mg, ss): 164 ng/mL
- Tmax (clinical; po, 30 mg, ss): 0.964 h
- AUC (clinical; po, 60 mg, AUC0-tau): 2340 ng·h/mL
- AUC(0-inf) (clinical; po, 60 mg): 2370 ng·h/mL
- AUC (clinical; po, 60 mg, AUCss): 2080 ng·h/mL
- Cmax (clinical; po, 60 mg): 364 ng/mL
- Cmax (clinical; po, 60 mg, ss): 355 ng/mL
- Tmax (clinical; po, 60 mg): 1.14 h
- Tmax (clinical; po, 60 mg, ss): 0.969 h
- half-life ([5]; Fasted (Day 1)): 11.2 h
- half-life ([5]; Fed (Day 1 as printed)): 11.3 h
- CLss/F ([6]; Cohort 1, 15.0 mg QD oral, Day 14, Geo Mean): 30.497 L/h
- CLss/F [6, 7]: 31.415 L/h
- t1/2 [6, 7]: 14.772 h
- CLss/F ([6]; Cohort 1, 15.0 mg QD oral, Day 14, Median): 30.41 L/h
- CLss/F ([6]; Cohort 2, 30.0 mg QD oral, Day 14, Geo Mean): 30.178 L/h
- CLss/F [6, 8]: 30.949 L/h
- t1/2 [6, 8]: 12.701 h
- CLss/F ([6]; Cohort 2, 30.0 mg QD oral, Day 14, Median): 30.12 L/h
- CLss/F ([6]; Cohort 3, 60.0 mg QD oral, Day 14, Geo Mean): 30.398 L/h
- CLss/F ([6]; Cohort 3, 60.0 mg QD oral, Day 14, Mean): 32.142 L/h
- CLss/F ([6]; Cohort 3, 60.0 mg QD oral, Day 14, Median): 28.45 L/h
- Vd/F ([6]; human, plasma, po, 15 mg, Cohort 1, 15.0 mg QD oral, Day 14, Geo Mean): 643 L
- Vd/F ([6]; human, plasma, po, 15 mg, Cohort 1, 15.0 mg QD oral, Day 14, Mean): 655 L
- Vd/F ([6]; human, plasma, po, 15 mg, Cohort 1, 15.0 mg QD oral, Day 14, Median): 657 L
- half-life ([6]; human, plasma, po, 15 mg, t1/2, Cohort 1, 15.0 mg QD oral, Day 14, Geo Mean): 14.6 h
- half-life ([6]; human, plasma, po, 15 mg, t1/2, Cohort 1, 15.0 mg QD oral, Day 14, Mean): 14.8 ± 2.26 h
- half-life ([6]; human, plasma, po, 15 mg, t1/2, Cohort 1, 15.0 mg QD oral, Day 14, Median): 15.3 h
- Cmax ([6]; human, plasma, po, 30 mg, Cmax, Cohort 2, 30.0 mg QD oral, Day 1, Geometric Mean): 120 ng/mL
- Vd/F ([6]; human, plasma, po, 30 mg, Cohort 2, 30.0 mg QD oral, Day 14, Geo Mean): 551 L
- Vd/F ([6]; human, plasma, po, 30 mg, Cohort 2, 30.0 mg QD oral, Day 14, Mean): 570 L
- Vd/F ([6]; human, plasma, po, 30 mg, Cohort 2, 30.0 mg QD oral, Day 14, Median): 514 L
- half-life ([6]; human, plasma, po, 30 mg, t1/2, Cohort 2, 30.0 mg QD oral, Day 14, Geo Mean): 12.6 h
- half-life ([6]; human, plasma, po, 30 mg, t1/2, Cohort 2, 30.0 mg QD oral, Day 14, Mean): 12.7 ± 1.23 h
- half-life ([6]; human, plasma, po, 30 mg, t1/2, Cohort 2, 30.0 mg QD oral, Day 14, Median): 12.9 h
- Vd/F ([6]; human, plasma, po, 60 mg, Cohort 3, 60.0 mg QD oral, Day 14, Geo Mean): 533 L
- Vd/F ([6]; human, plasma, po, 60 mg, Cohort 3, 60.0 mg QD oral, Day 14, Mean): 574 L
- Vd/F ([6]; human, plasma, po, 60 mg, Cohort 3, 60.0 mg QD oral, Day 14, Median): 531 L
- half-life ([6]; human, plasma, po, 60 mg, t1/2, Cohort 3, 60.0 mg QD oral, Day 14, Geo Mean): 12.2 h
- half-life ([6]; human, plasma, po, 60 mg, t1/2, Cohort 3, 60.0 mg QD oral, Day 14, Mean): 12.2 ± 1.32 h
- half-life ([6]; human, plasma, po, 60 mg, t1/2, Cohort 3, 60.0 mg QD oral, Day 14, Median): 12.4 h
- half-life ([6]; human, plasma, po, mean t1/2, steady state, across Cohorts 1-3 (15.0-60.0 mg QD oral)): 12.2 to 14.8 h

— patent publication US20200323823A1, “METHODS FOR THE TREATMENT OF DEPRESSION” (Praxis Precision Medicines, Inc., priority 2018, published 2020)
